The assay is described as follows: Inhibition of PB2 in Influenza A virus (A/Weiss/1943(H1N1)) infected in MDCK cells assessed as reduction in virus induced cell death after 5 days by CCK-8 assay. In general terms: Tetrazolium dyes change colour on reduction, which living cells bring about.

As usually defined, the EC50 is the concentration giving half of the maximal effect.

Take `O=C(O)[C@H]1C2CCC(CC2)[C@@H]1Nc1nc(-c2n[nH]c3ncc(F)cc23)nc2sccc12`: the 50% effective concentration (EC50) is 0.06 nM.
The figure for `O=C(O)[C@H]1C2CCC(CC2)[C@@H]1Nc1nc(-n2ccc3ncc(F)cc32)ncc1F` is 230 nM; for `Cc1cnc2c(N[C@H]3C4CCC(CC4)[C@@H]3C(=O)O)nc(-c3c[nH]c4ncc(F)cc34)nc2c1` it is 11 nM; for `O=C(O)[C@H]1C2CCC(CC2)[C@@H]1Nc1nc(-c2c[nH]c3ncc(F)cc23)nc2ccsc12` it is 0.5 nM.
In the case of `Cc1cccc2nc(N[C@H]3C4CCC(CC4)[C@@H]3C(=O)O)nc(-c3c[nH]c4ncc(F)cc34)c12`, the EC50 amounted to 450 nM.
Take `O=C(O)[C@H]1C2CCC(CC2)[C@@H]1n1ccc2cnc(-c3c[nH]c4ncc(F)cc34)nc21`: the concentration for a half-maximal effect (EC50) turned out to be 12 nM.
The figure for `O=C(O)[C@H]1C2CCC(CC2)[C@@H]1Nc1nc(-c2c[nH]c3ncc(F)cc23)nc2c1CSC2` is 2.6 nM; for `O=C(O)[C@H]1C2CCC(CC2)[C@@H]1Nc1nc(-c2c[nH]c3ncc(F)cc23)nc2c1CS(=O)(=O)C2` it is 2000 nM; for `O=C(O)[C@H]1C2CCC(CC2)[C@@H]1Nc1nc(-c2c[nH]c3ncc(F)cc23)nc2cccc(F)c12` it is 20 nM.
As for `O=C(O)[C@H]1C2CCC(CC2)[C@@H]1n1cnc2cnc(-c3c[nH]c4ncc(F)cc34)nc21`, the figure is 190 nM; as for `O=C(O)[C@H]1C2CCC(CC2)[C@@H]1Nc1nc(-c2c[nH]c3ncc(F)cc23)nc2c1CCC2`, 5.5 nM; as for `O=C(O)[C@H]1C2CCC(CC2)[C@@H]1Nc1nc(-c2c[nH]c3ncc(F)cc23)nc2c1SCC2`, 0.4 nM.
Take `N#Cc1csc2c(N[C@H]3C4CCC(CC4)[C@@H]3C(=O)O)nc(-c3c[nH]c4ncc(F)cc34)nc12`: the EC50 is 4 nM.
As for `Cc1cccc2nc(-c3c[nH]c4ncc(F)cc34)nc(N[C@H]3C4CCC(CC4)[C@@H]3C(=O)O)c12`, the figure is 11 nM; as for `O=C(O)[C@H]1C2CCC(CC2)[C@@H]1Nc1nc(-c2c[nH]c3ncc(F)cc23)nc2cc(F)cnc12`, 10 nM; as for `O=C(O)[C@H]1C2CCC(CC2)[C@@H]1Nc1nc(-c2c[nH]c3ncc(F)cc23)nc2c1CCS2`, 2.8 nM.
Take `O=C(O)[C@H]1C2CCC(CC2)[C@@H]1Nc1nc(-c2c[nH]c3ccc(F)cc23)ncc1F`: the half-maximal effective concentration (EC50) was 220 nM.
For the compound `Cn1cc(F)c2c(N[C@H]3C4CCC(CC4)[C@@H]3C(=O)O)nc(-c3c[nH]c4ncc(F)cc34)nc21`, the half-maximal effective concentration (EC50) was determined as 9.6 nM.
As for `O=C(O)[C@H]1C2CCC(CC2)[C@@H]1Nc1nc(-c2c[nH]c3ncc(F)cc23)nc2[nH]ccc12`, the figure is 4.5 nM; as for `O=C(O)[C@H]1C2CCC(CC2)[C@@H]1Nc1nc(-c2c[nH]c3ncc(F)cc23)nc2cccnc12`, 14 nM; as for `O=C(O)[C@H]1C2CCC(CC2)[C@@H]1Nc1nc(-c2c[nH]c3ncc(F)cc23)nc2ccoc12`, 5.3 nM.
`O=C(O)[C@H]1C2CCC(CC2)[C@@H]1Nc1nc(-c2c[nH]c3ncc(F)cc23)nc2cscc12`: the EC50 came to 1.4 nM.
As to `O=C(O)[C@H]1C2CCC(CC2)[C@@H]1Nc1nc(-c2c[nH]c3ncc(F)cc23)nc2nccnc12`, the EC50 amounted to 13 nM.
Take `O=C(O)[C@H]1C2CCC(CC2)[C@@H]1Nc1nc(-c2c[nH]c3ncc(F)cc23)nc2scnc12`: the EC50 turned out to be 3 nM.
The figure for `O=C(O)[C@H]1C2CCC(CC2)[C@@H]1Nc1nc(-c2c[nH]c3ncc(F)cc23)nc2sccc12` is 0.2 nM; for `O=C(O)[C@H]1C2CCC(CC2)[C@@H]1Nc1nc(-c2n[nH]c3ncc(F)cc23)nc2c1SCC2` it is 0.2 nM; for `O=C(O)[C@H]1C2CCC(CC2)[C@@H]1Nc1nc(-c2c[nH]c3ncc(F)cc23)nc2cc(C(F)F)sc12` it is 10 nM.
For `N#Cc1cn([C@H]2C3CCC(CC3)[C@@H]2C(=O)O)c2nc(-c3c[nH]c4ncc(F)cc34)ncc12`, the concentration for a half-maximal effect (EC50) came to 70 nM.
As for `O=C(O)[C@H]1C2CCC(CC2)[C@@H]1Nc1nc(-c2c[nH]c3ncc(F)cc23)nc2c1CCCC2`, the figure is 12 nM; as for `O=C(O)[C@H]1C2CCC(CC2)[C@@H]1Nc1nc(-c2c[nH]c3ncc(F)cc23)nc2c1S(=O)(=O)CC2`, 110 nM.
Consider `O=C(O)[C@H]1C2CCC(CC2)[C@@H]1Nc1nc(-c2c[nH]c3ncc(F)cc23)ncc1F`, for which the 50% effective concentration (EC50) worked out at 0.6 nM.
`O=C(O)[C@H]1C2CCC(CC2)[C@@H]1N1CCOc2cnc(-c3c[nH]c4ncc(F)cc34)nc21`: the concentration giving a half-maximal response (EC50) was 24 nM.
Turning to `O=C(O)[C@H]1C2CCC(CC2)[C@@H]1Nc1nc(-c2n[nH]c3ncc(F)cc23)nc2ccsc12`, the EC50 was found to be 0.5 nM.

These data come from BindingDB's records for doi:10.1016/j.ejmech.2018.11.015 (Fudan University, 2019).
